Earlier results as cited in US5550110A, “Endothelin Antagonists II” (Warner-Lambert Company, priority 1994, dated 1996).
Ends that are not written are not given here. Peptide text beside a SMILES is read from it.

What was measured:
acute CsA toxicity = conditions: rat model; cited from earlier work
[1] = system: ET-1 induced pressor response; conditions: conscious rats; cited from earlier work
[2] = system: acute hypoxia induced pulmonary hypertension; conditions: in vivo; cited from earlier work
endotoxic shock = conditions: mouse endotoxic shock; cited from earlier work
[3] = system: ischemic acute renal failure; conditions: i.v., cited from earlier work
[4] = system: ET-1 induced vasoconstriction; conditions: i.v.; cited from earlier work
[5] = system: renal vascular resistance; conditions: i.v.; cited from earlier work
[6] = system: ET-1 induced bronchoconstriction and tracheal smooth muscle contraction; conditions: allergic sheep; cited from earlier work
blood pressure [7] = conditions: intravenous infusion, stroke prone spontaneous hypertensive rats; cited from earlier work
[8] = system: cerebral vasoconstriction after subarachnoid hemorrhage; conditions: rats; cited from earlier work
[9] = system: renal vasoconstriction after renal ischemia; conditions: anesthetized rats; cited from earlier work
blood pressure [10] = conditions: orally administered; cited from earlier work
[11] = system: vasoconstriction after subarachnoid hemorrhage; conditions: cited from earlier work
ET receptor = conditions: cited from earlier work
ET-1 induced arrhythmia = conditions: rats; cited from earlier work
glomerular injury = conditions: intraperitoneal, rats; cited from earlier work
[12] = system: vasoconstriction of the basilar artery; conditions: intracisternal, canine subarachnoid hemorrhage model; cited from earlier work

CC(C)C[C@@H]1NC(=O)[C@@H](C(C)C)NC(=O)[C@@H]2CCCN2C(=O)[C@@H](CC(=O)O)NC(=O)[C@@H](Cc2c[nH]c3ccccc23)NC1=O [BQ-123] (HELM PEPTIDE1{L.[dW].[dD].P.[dV]}$PEPTIDE1,PEPTIDE1,1:R1-5:R2$$$V2.0)
acute CsA toxicity (acute CsA toxicity): suppressed | ET-1 induced pressor response [1]: effective in antagonizing the ET-1 induced pressor response | prevention of acute hypoxia induced pulmonary hypertension [2]: effective in the prevention of acute hypoxia induced pulmonary hypertension | survival rate (endotoxic shock): significantly increased the survival rate | mitochondrial [Ca2+] accumulation ([3]; early phase of ischemic acute renal failure in rats): prevents the mitochondrial [Ca^2+ ] accumulation | post-ischemic degeneration of proximal tubular cells ([3]; rats): protects proximal tubular cells from post-ischemic degeneration | ET-1 induced vasoconstriction in rabbit retinal arteries [4]: blocked | ET-1 induced renal vascular resistance in rats [5]: blocked | ET-1 induced bronchoconstriction and tracheal smooth muscle contraction [6]: block ET-1 induced bronchoconstriction and tracheal smooth muscle contraction | blood pressure (blood pressure [7]): decreased blood pressure significantly

COc1cccc(Oc2c(NS(=O)(=O)c3ccc(C(C)(C)C)cc3)ncnc2OCCO)c1 [Ro 46-2005]
cerebral vasoconstriction after subarachnoid hemorrhage [8]: dramatically reduced cerebral vasoconstriction | renal vasoconstriction after renal ischemia [9]: protective effect | antihypertensive effect (blood pressure [10]): marked antihypertensive effect with a reasonably long duration

COc1ccccc1Oc1c(NS(=O)(=O)c2ccc(C(C)(C)C)cc2)nc(-c2ncccn2)nc1OCCO [Ro 47-0203]
blood brain barrier passage ([11]; inferred from the rabbit subarachnoid hemorrhage model): crosses the blood brain barrier | reversal of vasoconstriction ([11]; rabbit subarachnoid hemorrhage model): effective in a rabbit subarachnoid hemorrhage model in reversing vasoconstriction

ET[1-20]: ET-1 lacking the C-terminal amino acid Trp-21 (CSCSSLMDKECVYFCHLDII; ends and bridges not checked; cysteine pairing not given here; UniProt P05305 53-72, looked up, fragment)
functional activity relative to ET-1 (ET receptor): approximately 1000 fold less

FR 139317
ET-1 induced arrhythmia (ET-1 induced arrhythmia): suppressed | permeability to proteins, glomerular injury, renal function (glomerular injury): reduced abnormal permeability to proteins and limited glomerular injury and prevented renal function deterioration | vasoconstriction of the basilar artery [12]: significantly reduced the vasoconstriction of the basilar artery
